US8623879B2, “1-heterocyclyl-1,5-dihydro-pyrazolo[3,4-D] pyrimidin-4-one derivates and their use as PDE9A modulators” (Boehringer Ingelheim International GmbH, priority 2008, dated 2014)

Target: T1, human PDE9A2 (Homo sapiens, UniProt O76083)
T1 construct: made in house; host or cells: Sf9 insect cells (infected); crude lysate used as enzyme source
Assay: PDE9A2 enzymatic activity assay (scintillation proximity assay, SPA)
Type: biochemical
Details: for inhibition at 10 µM: read-out: % inhibition of PDE9A2 (at 10 micromolar concentration), 10 micromolar concentration; for inhibition at 10 µM / % inhibition of PDE9A2 (at 10 micromolar concentration): values above 100% adjusted to 100%; for IC50: reported only as range 1-100 or 101-1200 nanomolar, specific value lies within range, read-out: IC50 within range [nanomolar (nM)]

T1 sequence (O76083 1-533 isoform O76083-2): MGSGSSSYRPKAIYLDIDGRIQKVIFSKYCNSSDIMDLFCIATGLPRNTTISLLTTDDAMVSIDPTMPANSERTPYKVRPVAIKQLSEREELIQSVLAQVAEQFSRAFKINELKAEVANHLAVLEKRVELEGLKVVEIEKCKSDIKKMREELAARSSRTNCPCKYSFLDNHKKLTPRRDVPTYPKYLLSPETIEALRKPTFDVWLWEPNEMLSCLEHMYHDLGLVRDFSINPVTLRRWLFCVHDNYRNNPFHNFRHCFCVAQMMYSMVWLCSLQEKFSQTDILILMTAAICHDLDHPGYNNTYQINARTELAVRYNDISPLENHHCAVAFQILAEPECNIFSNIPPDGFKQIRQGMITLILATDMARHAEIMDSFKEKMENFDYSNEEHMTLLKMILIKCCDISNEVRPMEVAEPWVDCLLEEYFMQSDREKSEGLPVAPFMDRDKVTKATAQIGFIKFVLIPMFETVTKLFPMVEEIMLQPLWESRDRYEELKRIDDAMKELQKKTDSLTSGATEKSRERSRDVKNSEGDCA

Structure (SMILES) | inhibition at 10 µM | IC50 | % inhibition of PDE9A2 (at 10 micromolar concentration)
O=c1[nH]c(Cc2ccccc2)nc2c1cnn2C1CCNCC1 [Example 202] | 83% | 101 to 1200 nM | 
CN1CCC(n2ncc3c(=O)[nH]c(Cc4ccccc4)nc32)C1 (racemic) [Example 210] | 97% | 1 to 100 nM | 
CC(=O)N1CCC(n2ncc3c(=O)[nH]c(Cc4ccccc4OC(F)(F)F)nc32)C1 (racemic) [Example 164] | 98% | 101 to 1200 nM | 
CC(=O)N1CCCC(n2ncc3c(=O)[nH]c(CC(C)C)nc32)C1 (racemic) [Example 189] | 90% | 101 to 1200 nM | 
CCC(C)Cc1nc2c(cnn2C2CCOCC2)c(=O)[nH]1 (racemic) [Example 135] | 98% | 1 to 100 nM | 
O=c1[nH]c(Cc2ccccn2)nc2c1cnn2C1CCCOC1 (racemic) [Example 94] | 96% | 101 to 1200 nM | 
O=c1[nH]c(Cc2ccccc2OC(F)(F)F)nc2c1cnn2C1CCNC1 (racemic) [Example 200] | 91% | 101 to 1200 nM | 
Cc1nc(Cc2nc3c(cnn3C3CCOCC3)c(=O)[nH]2)c(C)s1 [Example 24] | 86% | 101 to 1200 nM | 
O=C(Oc1ccc(F)cc1)N1CCCC(n2ncc3c(=O)[nH]c(Cc4ccccc4)nc32)C1 (racemic) [Example 185] | 100% | 1 to 100 nM | 
CC(=O)N1CCC(n2ncc3c(=O)[nH]c(Cc4ccccc4OC(F)(F)F)nc32)CC1 [Example 153] | 90% | 101 to 1200 nM | 
O=c1[nH]c(CC2CCCCCC2)nc2c1cnn2C1CCOCC1 [Example 1] | 100% | 1 to 100 nM | 
CC1CC(n2ncc3c(=O)[nH]c(CC4CCC4)nc32)CCO1 (racemic) [Example 120] | 95% | 1 to 100 nM | 
O=c1[nH]c(CC2CC2)nc2c1cnn2C1CCS(=O)(=O)CC1 [Example 237] | 89% | 101 to 1200 nM | 
O=C(c1ccccc1)N1CCCC(n2ncc3c(=O)[nH]c(Cc4ccccc4)nc32)C1 (racemic) [Example 182] | 100% | 1 to 100 nM | 
CC(Cc1nc2c(cnn2C2CCOCC2)c(=O)[nH]1)C(F)(F)F (single isomer, unassigned) [Example 131] | 97% | 1 to 100 nM | 
CC(C)Cc1nc2c(cnn2C2CCOC(C)C2)c(=O)[nH]1 (racemic) [Example 114] | 89% | 101 to 1200 nM | 
O=c1[nH]c(CCC2CCC2)nc2c1cnn2C1CCOCC1 [Example 40-1] | 100% | 1 to 100 nM | 
O=c1[nH]c(CCCC(F)(F)F)nc2c1cnn2C1CCOCC1 [Example 25] | 96% | 1 to 100 nM | 
O=c1[nH]c(CC2CCCO2)nc2c1cnn2C1CCOCC1 (racemic) [Example 42] | 92% | 101 to 1200 nM | 
O=c1[nH]c(CC2CCC2)nc2c1cnn2C1CCOCC1 [Example 43] | 98% | 1 to 100 nM | 
O=c1[nH]c(Cc2ccccc2C(F)(F)F)nc2c1cnn2C1CCOC1 (racemic) [Example 86] | 95% | 101 to 1200 nM | 
CC(=O)N1CCCC(n2ncc3c(=O)[nH]c(CC4CCCC4)nc32)C1 (racemic) [Example 157] | 97% | 1 to 100 nM | 

Structure (SMILES) | inhibition at 10 µM | IC50 | % inhibition of PDE9A2 (at 10 micromolar concentration)
CCC(Cc1nc2c(cnn2C2CCCN(C(=O)c3ccccc3)C2)c(=O)[nH]1)C(F)(F)F (mixture of isomers) [Example 174] | 89% | 101 to 1200 nM | 
CC(C)Cc1nc2c(cnn2C2CCCN(C(=O)c3ccccc3)C2)c(=O)[nH]1 (racemic) [Example 177] | 93% | 101 to 1200 nM | 
CC(Cc1nc2c(cnn2C2CCOCC2)c(=O)[nH]1)C(F)(F)F (racemic) [Example 46] | 100% | 1 to 100 nM | 
O=c1[nH]c(Cc2cccc(F)c2)nc2c1cnn2C1CCOCC1 [Example 139] | 99% | 1 to 100 nM | 
O=c1[nH]c(CC2CCCC2)nc2c1cnn2C1CCOC1 (racemic) [Example 69] | 99% | 1 to 100 nM | 
CC(C)Cc1nc2c(cnn2C2CCOC(C)C2)c(=O)[nH]1 (racemic) [Example 115] |  | 101 to 1200 nM | 92%
CN(C)C(=O)N1CCCC(n2ncc3c(=O)[nH]c(Cc4ccccc4)nc32)C1 (racemic) [Example 159] | 100% | 1 to 100 nM | 
CC1CC(n2ncc3c(=O)[nH]c(Cc4ccccn4)nc32)CCO1 (racemic) [Example 111] | 88% | 101 to 1200 nM | 
O=c1[nH]c(CC2CCCC2)nc2c1cnn2C1CCCN(CC(F)(F)F)C1 (racemic) [Example 191] | 92% | 101 to 1200 nM | 
CN1CCC(n2ncc3c(=O)[nH]c(CC4CCCC4)nc32)CC1 [Example 149] | 95% | 101 to 1200 nM | 
O=c1[nH]c(CC2CCCC2)nc2c1cnn2C1CCCN(CC(F)F)C1 (racemic) [Example 193] | 99% | 101 to 1200 nM | 
CN1CCC(n2ncc3c(=O)[nH]c(Cc4ccccc4)nc32)CC1 [Example 148] | 86% | 101 to 1200 nM | 
O=c1[nH]c(Cc2cccc(C(F)(F)F)c2)nc2c1cnn2C1CCCNC1 (racemic) [Example 205] | 100% | 1 to 100 nM | 
Cc1cc(C)cc(Cc2nc3c(cnn3C3CCOCC3)c(=O)[nH]2)c1 [Example 36] | 100% | 1 to 100 nM | 
O=C(c1ccccc1)N1CCC(n2ncc3c(=O)[nH]c(CC4CCC4)nc32)C1 (racemic) [Example 171] | 100% | 101 to 1200 nM | 
CCOc1ccccc1Cc1nc2c(cnn2C2CCCN(C(C)=O)C2)c(=O)[nH]1 (racemic) [Example 179] | 91% | 101 to 1200 nM | 
O=c1[nH]c(Cc2ccccc2OC(F)(F)F)nc2c1cnn2C1CCCNC1 (racemic) [Example 198] | 100% | 101 to 1200 nM | 
CC(C)Cc1nc2c(cnn2C2CCOC(C)(C)C2)c(=O)[nH]1 (racemic) [Example 106] | 87% | 101 to 1200 nM | 
O=c1[nH]c(Cc2ccc(F)cc2)nc2c1cnn2C1CCOCC1 [Example 140] | 100% | 1 to 100 nM | 
O=c1[nH]c(Cc2cc(F)cc(F)c2)nc2c1cnn2C1CCOCC1 [Example 7] | 98% | 1 to 100 nM | 
O=c1[nH]c(Cc2ccc(F)c(Cl)c2)nc2c1cnn2C1CCOC1 (racemic) [Example 71] | 99% | 1 to 100 nM | 
O=c1[nH]c(Cc2cccc(C(F)(F)F)n2)nc2c1cnn2C1CCOCC1 [Example 64] | 97% | 1 to 100 nM | 

Structure (SMILES) | inhibition at 10 µM | IC50 | % inhibition of PDE9A2 (at 10 micromolar concentration)
O=c1[nH]c(CC2CCCCC2)nc2c1cnn2C1CCOCC1 [Example 144] | 100% | 1 to 100 nM | 
O=c1[nH]c(Cc2ccc(F)c(Cl)c2)nc2c1cnn2C1CCOCC1 [Example 137] | 99% | 1 to 100 nM | 
CN1CCCC(n2ncc3c(=O)[nH]c(Cc4ccccc4OC(F)(F)F)nc32)C1 (racemic) [Example 209] | 89% | 101 to 1200 nM | 
CC1CC(n2ncc3c(=O)[nH]c(Cc4ccccn4)nc32)CCO1 (racemic) [Example 118] |  | 101 to 1200 nM | 89%
CC1CC(n2ncc3c(=O)[nH]c(Cc4ccccc4C#N)nc32)CCO1 (racemic) [Example 121] | 94% | 101 to 1200 nM | 
O=C(c1ccccc1)N1CCCC(n2ncc3c(=O)[nH]c(Cc4ccccc4OC(F)(F)F)nc32)C1 (racemic) [Example 163] | 97% | 101 to 1200 nM | 
CN(C)C(=O)N1CCCC(n2ncc3c(=O)[nH]c(Cc4ccccc4OC(F)(F)F)nc32)C1 (racemic) [Example 161] | 95% | 101 to 1200 nM | 
O=c1[nH]c(Cc2ccccc2Br)nc2c1cnn2C1CCOCC1 [Example 5] | 99% | 1 to 100 nM | 
O=c1[nH]c(Cc2ccccc2O[C@@H]2CCOC2)nc2c1cnn2C1CCOCC1 [Example 57] | 100% | 1 to 100 nM | 
CC(C)Cc1nc2c(cnn2C2CCOCC2C)c(=O)[nH]1 (racemic) [Example 132-8] |  | 101 to 1200 nM | 94%
O=c1[nH]c(C(F)c2ccccc2)nc2c1cnn2C1CCOCC1 (racemic) [Example 12] | 97% | 1 to 100 nM | 
CN1CCCC(n2ncc3c(=O)[nH]c(Cc4cccc(C(F)(F)F)c4)nc32)C1 (racemic) [Example 216] | 96% | 1 to 100 nM | 
COC(=O)N1CCCC(n2ncc3c(=O)[nH]c(Cc4ccccc4)nc32)C1 (racemic) [Example 155] | 100% | 1 to 100 nM | 
CC(C)(C)OC(=O)N1CCC(n2ncc3c(=O)[nH]c(CC4CCC4)nc32)C1 (racemic) [Example 16] | 86% | 101 to 1200 nM | 
CC(=O)N1CCC(n2ncc3c(=O)[nH]c(CC4CCCC4)nc32)CC1 [Example 151] | 92% | 101 to 1200 nM | 
O=c1[nH]c(Cc2cccc(C(F)(F)F)c2)nc2c1cnn2C1CCOCC1 [Example 44] | 99% | 1 to 100 nM | 
COc1ccc(Cc2nc3c(cnn3C3CCOCC3)c(=O)[nH]2)c(Cl)c1 [Example 40-2] | 100% | 1 to 100 nM | 
O=c1[nH]c(Cc2ccccc2F)nc2c1cnn2C1CCCNC1 (racemic) [Example 204] | 87% | 101 to 1200 nM | 
CC(=O)N1CCCC(n2ncc3c(=O)[nH]c(Cc4cccc(C(F)(F)F)c4)nc32)C1 (racemic) [Example 184] | 97% | 1 to 100 nM | 
O=c1[nH]c(CC2CCCC2)nc2c1cnn2C1CCCOC1 (racemic) [Example 90] | 100% | 1 to 100 nM | 
